# ChEMBL document CHEMBL1131600 (J Med Chem, 1998)
# How the values were obtained:
# Format in all cases: functional, organism-based
# Plasmodium falciparum [1] = experiment: In vitro antimalarial activity against chloroquine-sensitive Plasmodium falciparum NF54
# Plasmodium falciparum [2] = experiment: In vitro antimalarial activity against chloroquine-sensitive Plasmodium falciparum NF54 in C4alpha-alkylated trioxanes
# Plasmodium falciparum [3] = experiment: In vitro antimalarial activity against chloroquine-sensitive Plasmodium falciparum NF54 in C4beta-stannylmethyl trioxanes
Molecule,IC50 (Plasmodium falciparum [1]; Plasmodium falciparum) [nM],IC50 (Plasmodium falciparum [2]) [nM],IC50 (Plasmodium falciparum [3]; Plasmodium falciparum) [nM],other results
CO[C@H]1O[C@@]2(C)OOC13[C@H](CCOP(=O)(Oc1ccccc1)Oc1ccccc1)CCC[C@@H]3C[C@@H]2C,6.9,,,
CO[C@H]1O[C@]2(C)CC[C@H]3CCC[C@@H](CCO)C31OO2,120,,,
CO[C@H]1O[C@@]2(C)OOC13[C@H](CCO)CCC[C@@H]3CC2Cc1ccccc1 (some centres undefined),,1700,8.3,
CO[C@H]1O[C@@]2(C)OOC13CCCC[C@@H]3CC2CO (some centres undefined),,> 2500,230,
CO[C@H]1O[C@]2(C)CC[C@H]3CCC[C@@H](CCOCc4ccccc4)C31OO2,25,,,
CO[C@H]1O[C@@]2(C)OOC13CCCC[C@@H]3CC2Cc1ccc(COCc2ccc(F)cc2)cc1 (some centres undefined),240,,,
CO[C@H]1O[C@@]2(C)OOC13CCCC[C@@H]3C[C@@H]2CO,230,,,
CO[C@H]1O[C@@]2(C)OOC13CCCC[C@@H]3CC2Cc1ccc(CO)cc1 (some centres undefined),,> 2500,600,
CO[C@H]1O[C@@]2(C)OOC13CCCC[C@@H]3C[C@@H]2Cc1ccc(CO)cc1,600,,,
CO[C@H]1O[C@@]2(C)OOC13[C@H](CCO)CCC[C@@H]3CC2C (some centres undefined),,1300,7.7,
CO[C@H]1O[C@@]2(C)OOC13CCCC[C@@H]3CC2c1ccccc1 (some centres undefined),,> 2500,2000,
CO[C@H]1O[C@@]2(C)OOC13[C@H](CCOCc1ccccc1)CCC[C@@H]3C[C@@H]2C,11,,,
CO[C@H]1O[C@]2(C)CC[C@H]3CCC[C@@H](CCOCc4ccc(F)cc4)C31OO2,31,,,
CO[C@H]1O[C@@]2(C)OOC13[C@H](CCOCc1ccc(F)cc1)CCC[C@@H]3C[C@@H]2C,13,,,
CO[C@H]1O[C@@]2(C)OOC13CCCC[C@@H]3C[C@@H]2COCc1ccc(F)cc1,19,,,
CO[C@H]1O[C@@]2(C)OOC13CCCC[C@@H]3CC2Cc1ccccc1 (some centres undefined),,> 2500,310,
CO[C@H]1O[C@@]2(C)OOC13[C@H](CCO)CCC[C@@H]3CC2C[Si](C)(C)C (some centres undefined),,> 2500,240,
CO[C@H]1O[C@@]2(C)OOC13[C@H](CCO)CCC[C@@H]3C[C@@H]2C,7.7,,,
"2-((2S,6R,9S,12S)-12-Methoxy-9-methyl-8-trimethylstannanylmethyl-10,11,13-trioxa-tricyclo[7.2.2.0 1,6 ]tridec-2-yl)-ethanol",,,,IC50 (Plasmodium falciparum [3]): > 2500 nM
"((6R,9S,12S)-12-Methoxy-9-methyl-10,11,13-trioxa-tricyclo[7.2.2.01,6]tridec-8-ylmethyl)-trimethyl-stannane",,,,IC50 (Plasmodium falciparum [1]): > 2500 nM
"((6R,9S,12S)-12-Methoxy-9-methyl-10,11,13-trioxa-tricyclo[7.2.2.01,6]tridec-8-ylmethyl)-triphenyl-stannane",,,,IC50 (Plasmodium falciparum [1]): > 2500 nM
"Tributyl-((6R,9S,12S)-12-methoxy-9-methyl-10,11,13-trioxa-tricyclo[7.2.2.01,6]tridec-8-ylmethyl)-stannane",,,,IC50 (Plasmodium falciparum [1]): > 2500 nM
